Measurements published in ChEMBL document CHEMBL1201862, “PubChem BioAssay data set” (2004).
Calls of active or inactive are those of the source.

Columns and labels:
[1] = molecular target: Induced myeloid leukemia cell differentiation protein Mcl-1 (Homo sapiens, UniProt Q07820); test: blockers of MCL1 binding to BIM peptide – biochemical, fluorescence polarization, BIM-BH3 peptide, 1536-well, dose response (AID 2217)
[2] = molecular target: Bcl-2-like protein 1 (Homo sapiens, UniProt Q07817); test: blockers of BCLXL peptide binding – biochemical, fluorescence polarization, 1536-well, selectivity assay for MCL1 inhibitor project, dose response (AID 2218)
Sequence of Bcl-2-like protein 1 (Q07817 whole entry): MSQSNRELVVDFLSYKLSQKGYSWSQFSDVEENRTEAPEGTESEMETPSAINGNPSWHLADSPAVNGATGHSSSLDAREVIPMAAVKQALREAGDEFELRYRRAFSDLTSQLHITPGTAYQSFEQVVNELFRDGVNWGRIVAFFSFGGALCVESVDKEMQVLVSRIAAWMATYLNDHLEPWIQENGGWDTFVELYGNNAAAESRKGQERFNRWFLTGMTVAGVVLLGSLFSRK

[3] = NIH-3T3 fibroblast cytotoxicity, dose response, cytotoxicity control, cell-based, fluorescence, Alamar Blue, secondary assay (AID 2327); type: functional;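 further: NIH-3T3 mouse fibroblasts cultured with fluconazole at 8 µg/mL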
[4] = fluconazole-exposed Candida albicans growth modulators – fluorescence, retest, confirmation (AID 2467); type: functional, cell-based
[5] = molecular target: T1, Sphingosine 1-phosphate receptor 4 (Homo sapiens, UniProt O95977); test: Fluorescence dose response cell-based high throughput screening assay for antagonists of the Sphingosine 1-Phosphate Receptor 4 (S1P4). [Related pubchem assays: 1524 (Confirmation in triplicates.), 1510 (Primary screen.)]; type: functional
T1 sequence (O95977 whole entry): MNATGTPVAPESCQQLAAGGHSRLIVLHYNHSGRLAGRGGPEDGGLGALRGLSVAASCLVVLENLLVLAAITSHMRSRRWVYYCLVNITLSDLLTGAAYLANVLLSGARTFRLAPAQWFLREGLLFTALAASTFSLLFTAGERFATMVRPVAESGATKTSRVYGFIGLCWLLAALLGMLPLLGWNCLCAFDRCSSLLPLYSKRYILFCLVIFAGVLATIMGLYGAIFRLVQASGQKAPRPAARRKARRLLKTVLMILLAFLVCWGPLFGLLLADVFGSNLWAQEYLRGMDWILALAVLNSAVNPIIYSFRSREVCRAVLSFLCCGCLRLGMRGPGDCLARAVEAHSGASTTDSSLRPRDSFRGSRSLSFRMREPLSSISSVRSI

[6] = molecular target: Sphingosine 1-phosphate receptor 1 (Homo sapiens, UniProt P21453); type: functional;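 further: Tango beta-arrestin reporter U2OS cells stimulated with S1P near its EC80; inhibitor potency meaning antagonism of receptor activation by the natural agonist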
Sequence of Sphingosine 1-phosphate receptor 1 (P21453 whole entry): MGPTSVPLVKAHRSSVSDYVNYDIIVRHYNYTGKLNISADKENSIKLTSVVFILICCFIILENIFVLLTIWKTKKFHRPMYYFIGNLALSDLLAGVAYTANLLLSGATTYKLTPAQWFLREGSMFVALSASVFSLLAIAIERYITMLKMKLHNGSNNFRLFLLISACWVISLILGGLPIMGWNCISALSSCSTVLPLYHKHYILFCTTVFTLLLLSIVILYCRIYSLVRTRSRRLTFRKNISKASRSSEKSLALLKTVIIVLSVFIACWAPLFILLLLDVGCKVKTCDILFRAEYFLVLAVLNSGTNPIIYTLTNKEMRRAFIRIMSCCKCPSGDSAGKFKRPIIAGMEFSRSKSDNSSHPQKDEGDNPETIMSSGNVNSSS

[7] = molecular target: T2, Heat shock factor protein 1 (Mus musculus, UniProt P38532); test: enhancement of HSF1-driven luciferase signal – cell-based, NIH3T3, luminescence, dose retest, confirmation (AID 435004); type: functional;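 further: stress induced by proteasome inhibitor MG132 added 30 min after compound; luciferase reporter driven by HSF1 response element in NIH3T3 cells; actives raise luminescence as potentiators of the MG132 stress response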
T2 sequence (P38532 whole entry): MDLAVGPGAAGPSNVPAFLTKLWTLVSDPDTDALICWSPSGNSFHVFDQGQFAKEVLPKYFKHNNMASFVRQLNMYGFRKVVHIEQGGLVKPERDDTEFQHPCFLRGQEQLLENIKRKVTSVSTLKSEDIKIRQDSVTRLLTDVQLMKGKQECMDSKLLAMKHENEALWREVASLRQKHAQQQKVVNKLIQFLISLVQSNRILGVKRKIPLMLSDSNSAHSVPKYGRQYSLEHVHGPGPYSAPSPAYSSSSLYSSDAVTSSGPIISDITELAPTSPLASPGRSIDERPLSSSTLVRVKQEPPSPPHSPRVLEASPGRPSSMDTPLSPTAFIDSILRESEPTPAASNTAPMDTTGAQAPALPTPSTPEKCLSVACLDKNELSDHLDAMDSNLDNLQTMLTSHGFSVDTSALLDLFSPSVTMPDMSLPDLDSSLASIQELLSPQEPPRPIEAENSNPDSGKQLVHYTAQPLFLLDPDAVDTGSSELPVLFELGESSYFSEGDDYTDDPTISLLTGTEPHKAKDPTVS

[8] = molecular target: T3, Replicative DNA helicase DnaB (Mycobacterium tuberculosis, UniProt P9WMR3); test: DnaB intein splicing inhibitors, dose response, biochemical, cell-free fluorescence (AID 449749); type: functional
T3 sequence (P9WMR3 whole entry): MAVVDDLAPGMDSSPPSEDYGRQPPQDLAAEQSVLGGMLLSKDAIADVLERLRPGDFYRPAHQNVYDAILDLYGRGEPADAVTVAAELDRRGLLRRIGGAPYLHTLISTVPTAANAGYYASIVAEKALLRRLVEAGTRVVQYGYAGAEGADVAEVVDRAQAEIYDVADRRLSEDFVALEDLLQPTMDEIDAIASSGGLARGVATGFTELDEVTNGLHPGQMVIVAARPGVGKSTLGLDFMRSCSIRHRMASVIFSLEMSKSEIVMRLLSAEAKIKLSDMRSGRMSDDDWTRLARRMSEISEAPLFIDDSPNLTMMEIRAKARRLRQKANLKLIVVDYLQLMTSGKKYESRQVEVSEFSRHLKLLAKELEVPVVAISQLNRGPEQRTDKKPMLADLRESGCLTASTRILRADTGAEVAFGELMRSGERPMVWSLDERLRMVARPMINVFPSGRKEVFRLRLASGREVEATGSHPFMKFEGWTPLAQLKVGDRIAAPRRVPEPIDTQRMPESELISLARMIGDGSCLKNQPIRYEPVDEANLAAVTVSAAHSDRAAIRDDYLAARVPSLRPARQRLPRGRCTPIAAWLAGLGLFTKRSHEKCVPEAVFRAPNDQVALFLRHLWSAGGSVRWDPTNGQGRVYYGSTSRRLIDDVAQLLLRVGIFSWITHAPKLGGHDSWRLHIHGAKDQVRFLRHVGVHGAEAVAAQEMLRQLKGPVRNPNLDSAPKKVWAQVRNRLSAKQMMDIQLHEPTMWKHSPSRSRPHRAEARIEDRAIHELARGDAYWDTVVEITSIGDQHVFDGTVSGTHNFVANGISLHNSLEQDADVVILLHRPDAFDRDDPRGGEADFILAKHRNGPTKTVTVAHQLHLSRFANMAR

[9] = molecular target: T4, Protein RecA (Mycobacterium tuberculosis, UniProt P9WHJ3); test: Fluorescence Cell-Free Homogeneous Dose Retest to Identify Inhibitors of RecA-Intein Splicing Activity. [Related pubchem assays (depositor defined):AID2097, AID2223, AID489010, AID492950]; type: functional
T4 sequence (P9WHJ3 whole entry): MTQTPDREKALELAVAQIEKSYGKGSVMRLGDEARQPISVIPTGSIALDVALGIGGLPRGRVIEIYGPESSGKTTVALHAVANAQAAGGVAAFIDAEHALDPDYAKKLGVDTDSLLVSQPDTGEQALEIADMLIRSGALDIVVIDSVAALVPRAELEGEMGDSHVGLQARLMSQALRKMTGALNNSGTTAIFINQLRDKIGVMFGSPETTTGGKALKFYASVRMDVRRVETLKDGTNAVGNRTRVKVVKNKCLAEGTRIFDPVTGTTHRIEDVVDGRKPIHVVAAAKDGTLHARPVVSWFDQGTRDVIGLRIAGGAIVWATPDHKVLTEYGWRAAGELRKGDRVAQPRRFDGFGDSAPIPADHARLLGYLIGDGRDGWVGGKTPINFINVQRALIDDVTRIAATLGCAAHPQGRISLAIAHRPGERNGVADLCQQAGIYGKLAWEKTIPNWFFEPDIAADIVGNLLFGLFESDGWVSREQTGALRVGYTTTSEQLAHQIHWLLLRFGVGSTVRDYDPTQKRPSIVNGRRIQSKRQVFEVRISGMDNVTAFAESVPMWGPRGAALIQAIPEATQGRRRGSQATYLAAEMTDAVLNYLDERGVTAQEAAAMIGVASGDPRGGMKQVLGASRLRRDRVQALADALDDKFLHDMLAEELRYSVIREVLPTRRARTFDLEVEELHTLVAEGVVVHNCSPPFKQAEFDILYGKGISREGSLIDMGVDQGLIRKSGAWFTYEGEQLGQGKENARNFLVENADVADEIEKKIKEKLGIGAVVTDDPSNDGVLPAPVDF

Sequence of Induced myeloid leukemia cell differentiation protein Mcl-1 (Q07820 whole entry): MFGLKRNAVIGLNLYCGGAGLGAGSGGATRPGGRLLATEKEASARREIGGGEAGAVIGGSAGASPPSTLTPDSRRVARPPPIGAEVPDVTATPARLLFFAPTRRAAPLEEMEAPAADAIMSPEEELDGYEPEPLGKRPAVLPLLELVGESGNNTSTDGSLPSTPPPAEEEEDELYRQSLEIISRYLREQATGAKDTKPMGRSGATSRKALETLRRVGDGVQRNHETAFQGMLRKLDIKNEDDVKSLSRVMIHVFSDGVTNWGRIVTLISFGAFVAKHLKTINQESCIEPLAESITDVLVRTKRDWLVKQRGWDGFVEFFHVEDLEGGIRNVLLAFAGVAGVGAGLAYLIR

| Compound | IC50 [1] | IC50 [2] | EC50 [3] | EC50 [4] | IC50 [5] | IC50 [6] | EC50 [7] | AC50 [8] | EC50 [9] |
| --- | --- | --- | --- | --- | --- | --- | --- | --- | --- |
| Cc1ccccc1OCC(=O)OCC(=O)Nc1ncc(Cl)c(C)c1Cl | 15.7 µM (not active) | 30.4 µM (not active) | – | – | – | – | – | – | – |
| COc1cccc(-n2nnnc2S(C)(=O)=O)c1 | – | – | 3.96 µM (inconclusive) | 1.76 µM (active) | 1.26 µM (active) | 23.6 µM (not active) | 6.59 µM (active) | 3.14 µM (active) | 1.1 µM (active) |
